We go through five compounds from the NIST ThermoML archive (doi:10.1007/s10765-008-0390-4).

The conditions of data set [1]: 101 kPa, Liquid.
Data set [2] can be described thus: xn = mol fraction of the nth substance listed. The note with it: 101 kPa, Liquid, x1 = 1.

Numbers after ± are expanded uncertainties.

As for `c1ccccc1` [benzene], the mass density (in general, the mass of a sample divided by its volume) in data set [1] (288.15 K) was 884.246 ± 0.15 kg/m3; in data set [1] (293.15 K) it was 878.918 ± 0.16 kg/m3; in data set [1] (298.15 K), 873.582 ± 0.16 kg/m3; in data set [1] (303.15 K), 868.233 ± 0.17 kg/m3; in data set [1] (308.15 K) it was 862.871 ± 0.17 kg/m3; in data set [1] (313.15 K), 857.498 ± 0.17 kg/m3.

In the case of `CCCCO` [butan-1-ol], the mass density was 813.373 ± 0.24 kg/m3 in data set [1] (288.15 K); 809.573 ± 0.24 kg/m3 in data set [1] (293.15 K); 805.762 ± 0.25 kg/m3 in data set [1] (298.15 K); 801.923 ± 0.25 kg/m3 in data set [1] (303.15 K); 798.053 ± 0.25 kg/m3 in data set [1] (308.15 K); 794.147 ± 0.25 kg/m3 in data set [1] (313.15 K).

Regarding `CCCCO` [butan-1-ol] + ClC(Cl)Cl, the mass density was found to be 813.373 ± 0.24 kg/m3 in data set [2] (288.15 K); 809.573 ± 0.24 kg/m3 in data set [2] (293.15 K); 805.762 ± 0.25 kg/m3 in data set [2] (298.15 K); 801.923 ± 0.25 kg/m3 in data set [2] (303.15 K); 798.053 ± 0.25 kg/m3 in data set [2] (308.15 K); 794.147 ± 0.25 kg/m3 in data set [2] (313.15 K).

On to `CCCCO` [butan-1-ol] + c1ccccc1, for which the mass density in data set [2] (288.15 K) turned out to be 813.373 ± 0.24 kg/m3; in data set [2] (293.15 K), 809.573 ± 0.24 kg/m3; in data set [2] (298.15 K), 805.762 ± 0.25 kg/m3; in data set [2] (303.15 K) it was 801.923 ± 0.25 kg/m3; in data set [2] (308.15 K) it was 798.053 ± 0.25 kg/m3; in data set [2] (313.15 K), 794.147 ± 0.25 kg/m3.

In the case of `ClC(Cl)Cl` [trichloromethane], the mass density in data set [1] (288.15 K) stood at 1498.08 ± 0.47 kg/m3; in data set [1] (293.15 K) it was 1488.64 ± 0.46 kg/m3; in data set [1] (298.15 K), 1479.15 ± 0.45 kg/m3; in data set [1] (303.15 K), 1469.61 ± 0.45 kg/m3; in data set [1] (308.15 K) it was 1460.03 ± 0.44 kg/m3; in data set [1] (313.15 K) it was 1450.41 ± 0.43 kg/m3.
